Laboratory results: patent publication US9821000B2, “Compounds, compositions and corresponding uses for preventing and/or treating of dyslipidemia” (CENTRE NATIONAL DE LA RECHERCHE SCIENTIFIQUE (CNRS), priority 2013, dated 2017)

System: hem1Δ yeasts
Experiment: Restoration of growth of lipo-intoxicated hem1Δ yeasts (drop test on agar)
Format: cell-based, Saccharomyces cerevisiae
Settings: SFA accumulation conditions; 5 μl drops on agar; after three days
Procedure: FIG. 3B—The hem1Δ yeasts were cultivated in conditions of SFA accumulation as indicated. 5 μl drops of OAG, LPA and oleic acid in the concentrations indicated were then deposited on the surface of the agar medium. The restoration of growth of the hem1Δ yeasts is observed in the formation of colonies after three days.
The strain carrying the hem1Δ strain is cultivated, under aerobic conditions, under stirring and at 28° C., in a YPG^A liquid medium (YPG (yeast extract 1% (m/v), peptone 1% (m/v) and glucose 2% (m/v)) supplemented with δ-aminolevulinic acid (ALA) at 80 μg/mL). Lipotoxicity by saturated fatty acids (SFA) is prompted by depletion of unsaturated fatty acids (UFA)—the synthesis of which is dependent on the presence of haem (prosthetic grouping of the enzyme Ole1p especially)—by transfer into YPG^+ medium (YPG supplemented with ergosterol at 80 μg/mL to compensate for the depletion in sterol obtained under these conditions). The lipotoxicity can be induced in a solid medium YPG^++agar 2% (m/v) in transferring 3500 cells (hem1Δ coming from a pre-culture in YPG^A)/cm^2 or *alternatively in a liquid medium in inoculating 2·10^6 cells/mL of YPG^+. Classically, the effects of lipotoxicity on SFA are analyzed 7 h after the transfer into YPG^+ medium. The capacity of a compound to counter the deleterious effects of lipotoxicity with SFA is for its part evaluated successively with the addition of this compound on (or in) the YPG^+ transfer medium after seeding with cells.
1) Screening of compounds: Following the induction of lipotoxicity with SFA (for hem1Δ cultivated in a solid medium), 5 μL drops of solutions of different compounds at 10 mM in dimethylsulfoxide (DMSO) or in ethanol (EtOH) are deposited on the surface of agar. The capacity of a compound to counter the lipo-induced stoppage of cell growth is estimated by the appearance of a halo of hem1Δ colonies at the position of the deposit of said compound after three days of culture at 28° C. (cf. Deguil et al., 2011).

`CCCCCCCC/C=C\CCCCCCCC(=O)OC[C@@H](O)COP(=O)(O)O` [LPA, 1-oleoyl-sn-glycerol-3-phosphate] was tested, and the “restoration of growth of lipo-intoxicated hem1Δ yeasts (formation of colonies)” value was “restore the growth”.
With `CCCCCCCC/C=C\CCCCCCCC(=O)OC[C@H](CO)OC(C)=O` [OAG, 1-oleoyl-2-acetyl-sn-glycerol] the “restoration of growth of lipo-intoxicated hem1Δ yeasts (formation of colonies)” value was “restore the growth”.
